According to ChEMBL document CHEMBL1201862, “PubChem BioAssay data set” (2004):
The source made the active and inactive calls.

Experiments:
[1] = biological target: Eukaryotic translation initiation factor 4H (Homo sapiens, UniProt Q15056); test: eIF4H inhibition in translation initiation, SAR follow-up (AID 435011); assay type: functional
[2] = biological target: Polyadenylate-binding protein 1 (Homo sapiens, UniProt P11940); test: PABP inhibition in translation initiation, SAR follow-up (AID 435018); assay type: functional
[3] = biological target: T1, Protein phosphatase methylesterase 1 (Homo sapiens, UniProt Q9Y570); test: Late stage results from the probe development effort to identify inhibitors of the protein methylesterase PME-1: Gel-based Activity-Based Protein Profiling (ABPP) IC50: Purified enzyme.; assay type: functional
[4] = biological target: T1, Protein phosphatase methylesterase 1; test: PME-1 inhibitor potency by in-gel ABPP, dose response, selectivity assay for PME-1 inhibitor project, cell lysate, mouse brain cytosol, FP-rhodamine, panel member PME-1 Assay Panel member description: Inhibition of endogenously expressed PME-1 (AID 2366)
[5] = biological target: G-protein coupled receptor 55 (Homo sapiens, UniProt Q9Y2T6); test: GPR55 antagonists blocking LPI-driven arrestin recruitment, primary screen, imaging, U2OS, beta-arrestin-GFP, LPI agonist (AID 2013); assay type: functional;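 also: antagonist potency measured as reduced agonist-driven arrestin aggregation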
[6] = biological target: Voltage-dependent T-type calcium channel subunit alpha-1H (Homo sapiens, UniProt O95180); assay type: functional;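 also: channel activity triggered by adding a high calcium stimulation buffer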
Saccharomyces cerevisiae = test: NALP1 inhibitor project selectivity study, Caspase-1/ASC signal blockade IC50 in S. cerevisiae (AID 488863); assay type: functional, organism-based
[7] = biological target: NACHT, LRR and PYD domains-containing protein 1 (Homo sapiens, UniProt Q9C000); test: NALP1 inhibitors in yeast, dose response, luminescent (AID 488860); assay type: functional
[8] = biological target: T2, Short transient receptor potential channel 4 (Mus musculus, UniProt Q9QUQ5); test: TRPC4 positive allosteric modulators, dose response, cell-based, HEK293 TRPC4/mu-opioid, Fluo-4 calcium, EC20 DAMGO (AID 434941); assay type: functional
T2 sequence (Q9QUQ5 whole entry): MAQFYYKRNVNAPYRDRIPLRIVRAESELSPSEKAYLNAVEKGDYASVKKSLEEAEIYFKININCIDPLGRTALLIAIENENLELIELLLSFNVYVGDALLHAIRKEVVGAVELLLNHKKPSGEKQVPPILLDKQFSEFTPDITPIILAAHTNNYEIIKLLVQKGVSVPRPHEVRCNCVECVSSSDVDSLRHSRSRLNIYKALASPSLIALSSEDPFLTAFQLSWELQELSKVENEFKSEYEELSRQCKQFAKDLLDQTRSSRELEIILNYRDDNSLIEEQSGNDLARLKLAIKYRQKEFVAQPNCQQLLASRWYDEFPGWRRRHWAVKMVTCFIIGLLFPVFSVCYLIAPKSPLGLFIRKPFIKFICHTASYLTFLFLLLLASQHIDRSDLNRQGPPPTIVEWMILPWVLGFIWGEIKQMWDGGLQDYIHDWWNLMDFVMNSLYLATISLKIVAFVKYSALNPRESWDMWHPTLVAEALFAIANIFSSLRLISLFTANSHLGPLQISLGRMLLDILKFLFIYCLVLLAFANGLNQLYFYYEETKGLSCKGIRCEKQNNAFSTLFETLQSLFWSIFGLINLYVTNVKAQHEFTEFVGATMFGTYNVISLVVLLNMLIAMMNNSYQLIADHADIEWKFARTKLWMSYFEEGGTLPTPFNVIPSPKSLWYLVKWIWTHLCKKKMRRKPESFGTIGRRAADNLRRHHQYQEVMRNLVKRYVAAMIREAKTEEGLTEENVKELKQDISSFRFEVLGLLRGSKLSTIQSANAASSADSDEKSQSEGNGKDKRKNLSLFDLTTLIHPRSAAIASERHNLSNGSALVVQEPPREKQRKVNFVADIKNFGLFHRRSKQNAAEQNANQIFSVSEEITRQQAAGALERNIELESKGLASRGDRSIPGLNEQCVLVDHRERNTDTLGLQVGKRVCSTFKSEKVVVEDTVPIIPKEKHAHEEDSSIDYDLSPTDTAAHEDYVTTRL

Trypsin = Trypsin (Sus scrofa, UniProt P00761); test: porcine trypsin inhibitors, dose response, selectivity assay for Rce1 protease inhibitor project, biochemical, quenched peptide fluorescence, cherry-pick (AID 488789)
[9] = MC4R antagonists, dose response, counter-screen for LGR2 antagonist project, cell-based, plate reader, cherry pick (AID 743444); assay type: functional;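 also: transfected HEK 293 cells stimulated with alpha-MSH peptide; potency of inhibitors of the alpha-MSH evoked signal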
[10] = HEK293 cell cytotoxicity, dose response, cytotoxicity control, plate reader, cherry-picked samples (AID 743446); assay type: functional, cell-based
[11] = HepG2 cell cytotoxicity, dose response, cytotoxicity control, plate reader, cherry-pick, antagonist series (AID 743416); assay type: functional, cell-based
[12] = LGR2 antagonists, dose response, cell-based, HEK293, CRE-luciferase reporter, cherry pick, set 2 (AID 743343); assay type: functional;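 also: transfected cells were stimulated with diluted bursicon conditioned medium after compound addition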
Streptokinase A = biological target: T3, Streptokinase A (Streptococcus pyogenes serotype M1, UniProt P10520); test: S. pyogenes streptokinase expression inhibitors, potency, dose response, plasminogen activation absorbance, OD405 (AID 1914); assay type: functional, Streptococcus pyogenes M1 GAS;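 also: secreted streptokinase activity via plasminogen activation per viability signal from cell pellet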
T3 sequence (P10520 whole entry): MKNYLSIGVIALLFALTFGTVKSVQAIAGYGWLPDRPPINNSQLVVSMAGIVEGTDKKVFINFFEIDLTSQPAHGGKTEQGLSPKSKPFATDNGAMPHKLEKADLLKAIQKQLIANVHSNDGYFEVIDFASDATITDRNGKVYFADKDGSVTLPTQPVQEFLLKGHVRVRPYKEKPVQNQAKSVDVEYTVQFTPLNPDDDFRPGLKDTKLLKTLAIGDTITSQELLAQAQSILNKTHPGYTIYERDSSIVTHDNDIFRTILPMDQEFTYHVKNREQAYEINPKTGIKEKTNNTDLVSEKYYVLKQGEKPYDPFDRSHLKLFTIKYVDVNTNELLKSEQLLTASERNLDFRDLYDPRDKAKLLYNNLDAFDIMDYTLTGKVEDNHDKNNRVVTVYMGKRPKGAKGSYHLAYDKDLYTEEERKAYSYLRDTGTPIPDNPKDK

Streptococcus = test: Group A Streptococcus viability loss, dose response, counter-screen for streptokinase expression inhibitor project, luminescence, BacTiterGlo (AID 1915); assay type: functional, organism-based;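 also: potency for reduction of bacterial viability or growth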
[13] = tested on: Streptococcus sp. 'group A'; test: growth inhibition of control SK(-) GAS strain, dose response, counter-screen for streptokinase expression inhibitor project, luminescence, kanamycin, BacTiterGlo, confirmation (AID 1900); assay type: functional, organism-based
[14] = A549 cell cytotoxicity, dose response, cytotoxicity control, plate reader, cherry-pick, antagonist series (AID 743412); assay type: functional, cell-based
CAAX prenyl protease 2 = biological target: T4, CAAX prenyl protease 2 (Saccharomyces cerevisiae S288c, UniProt Q03530); assay type: biochemical
T4 sequence (Q03530 whole entry): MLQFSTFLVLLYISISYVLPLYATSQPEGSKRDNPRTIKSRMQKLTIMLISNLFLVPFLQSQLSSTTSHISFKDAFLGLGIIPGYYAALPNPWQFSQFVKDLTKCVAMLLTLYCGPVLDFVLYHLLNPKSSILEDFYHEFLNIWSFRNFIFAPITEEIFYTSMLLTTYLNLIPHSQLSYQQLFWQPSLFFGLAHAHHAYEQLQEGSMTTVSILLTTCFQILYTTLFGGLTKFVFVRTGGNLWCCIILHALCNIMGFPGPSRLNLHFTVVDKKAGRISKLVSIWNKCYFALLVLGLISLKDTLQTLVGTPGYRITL

T1 sequence (Q9Y570 whole entry): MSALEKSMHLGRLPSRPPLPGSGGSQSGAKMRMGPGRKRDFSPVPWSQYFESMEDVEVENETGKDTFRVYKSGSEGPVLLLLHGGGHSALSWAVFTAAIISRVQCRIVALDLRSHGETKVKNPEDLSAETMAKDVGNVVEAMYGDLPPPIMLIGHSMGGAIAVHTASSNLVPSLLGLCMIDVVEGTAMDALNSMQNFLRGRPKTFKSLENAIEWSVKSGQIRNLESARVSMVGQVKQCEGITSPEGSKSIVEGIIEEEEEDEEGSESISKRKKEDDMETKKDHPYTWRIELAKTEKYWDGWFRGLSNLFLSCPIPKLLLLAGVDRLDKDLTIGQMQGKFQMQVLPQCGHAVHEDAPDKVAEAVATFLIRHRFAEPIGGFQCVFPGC
Trypsin, sequence (P00761 whole entry): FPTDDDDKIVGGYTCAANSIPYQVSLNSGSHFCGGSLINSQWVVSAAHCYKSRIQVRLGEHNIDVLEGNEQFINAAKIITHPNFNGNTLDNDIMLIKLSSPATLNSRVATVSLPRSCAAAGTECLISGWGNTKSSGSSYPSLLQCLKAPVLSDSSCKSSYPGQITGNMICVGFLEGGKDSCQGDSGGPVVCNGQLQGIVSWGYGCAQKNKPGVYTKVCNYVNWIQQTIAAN
G-protein coupled receptor 55, sequence (Q9Y2T6 whole entry): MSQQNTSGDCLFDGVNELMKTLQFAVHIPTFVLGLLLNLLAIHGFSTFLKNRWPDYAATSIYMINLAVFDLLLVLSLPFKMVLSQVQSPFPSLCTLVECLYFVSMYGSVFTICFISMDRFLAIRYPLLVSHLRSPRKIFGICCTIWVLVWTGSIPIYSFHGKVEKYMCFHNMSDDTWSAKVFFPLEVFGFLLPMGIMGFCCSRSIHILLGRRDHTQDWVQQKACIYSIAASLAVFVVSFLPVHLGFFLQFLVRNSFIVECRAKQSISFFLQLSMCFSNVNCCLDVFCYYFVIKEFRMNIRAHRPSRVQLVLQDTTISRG
Polyadenylate-binding protein 1, sequence (P11940 whole entry): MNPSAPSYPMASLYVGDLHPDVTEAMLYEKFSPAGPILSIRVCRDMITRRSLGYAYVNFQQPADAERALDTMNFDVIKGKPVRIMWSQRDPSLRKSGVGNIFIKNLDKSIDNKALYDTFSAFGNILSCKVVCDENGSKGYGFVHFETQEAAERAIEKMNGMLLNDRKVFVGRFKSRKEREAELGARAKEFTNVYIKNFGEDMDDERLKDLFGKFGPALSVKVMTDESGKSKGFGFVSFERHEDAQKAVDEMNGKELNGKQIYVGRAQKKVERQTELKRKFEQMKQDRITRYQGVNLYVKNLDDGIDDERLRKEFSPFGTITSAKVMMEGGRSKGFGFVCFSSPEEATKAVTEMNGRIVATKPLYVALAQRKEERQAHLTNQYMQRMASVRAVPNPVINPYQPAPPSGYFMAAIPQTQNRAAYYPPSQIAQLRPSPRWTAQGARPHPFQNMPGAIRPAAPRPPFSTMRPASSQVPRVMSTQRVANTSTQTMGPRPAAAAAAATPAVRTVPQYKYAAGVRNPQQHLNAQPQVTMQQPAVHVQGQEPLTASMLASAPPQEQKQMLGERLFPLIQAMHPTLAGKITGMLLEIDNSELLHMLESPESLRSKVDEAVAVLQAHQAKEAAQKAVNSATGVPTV
NACHT, LRR and PYD domains-containing protein 1, sequence (Q9C000 1-1212 limits assumed): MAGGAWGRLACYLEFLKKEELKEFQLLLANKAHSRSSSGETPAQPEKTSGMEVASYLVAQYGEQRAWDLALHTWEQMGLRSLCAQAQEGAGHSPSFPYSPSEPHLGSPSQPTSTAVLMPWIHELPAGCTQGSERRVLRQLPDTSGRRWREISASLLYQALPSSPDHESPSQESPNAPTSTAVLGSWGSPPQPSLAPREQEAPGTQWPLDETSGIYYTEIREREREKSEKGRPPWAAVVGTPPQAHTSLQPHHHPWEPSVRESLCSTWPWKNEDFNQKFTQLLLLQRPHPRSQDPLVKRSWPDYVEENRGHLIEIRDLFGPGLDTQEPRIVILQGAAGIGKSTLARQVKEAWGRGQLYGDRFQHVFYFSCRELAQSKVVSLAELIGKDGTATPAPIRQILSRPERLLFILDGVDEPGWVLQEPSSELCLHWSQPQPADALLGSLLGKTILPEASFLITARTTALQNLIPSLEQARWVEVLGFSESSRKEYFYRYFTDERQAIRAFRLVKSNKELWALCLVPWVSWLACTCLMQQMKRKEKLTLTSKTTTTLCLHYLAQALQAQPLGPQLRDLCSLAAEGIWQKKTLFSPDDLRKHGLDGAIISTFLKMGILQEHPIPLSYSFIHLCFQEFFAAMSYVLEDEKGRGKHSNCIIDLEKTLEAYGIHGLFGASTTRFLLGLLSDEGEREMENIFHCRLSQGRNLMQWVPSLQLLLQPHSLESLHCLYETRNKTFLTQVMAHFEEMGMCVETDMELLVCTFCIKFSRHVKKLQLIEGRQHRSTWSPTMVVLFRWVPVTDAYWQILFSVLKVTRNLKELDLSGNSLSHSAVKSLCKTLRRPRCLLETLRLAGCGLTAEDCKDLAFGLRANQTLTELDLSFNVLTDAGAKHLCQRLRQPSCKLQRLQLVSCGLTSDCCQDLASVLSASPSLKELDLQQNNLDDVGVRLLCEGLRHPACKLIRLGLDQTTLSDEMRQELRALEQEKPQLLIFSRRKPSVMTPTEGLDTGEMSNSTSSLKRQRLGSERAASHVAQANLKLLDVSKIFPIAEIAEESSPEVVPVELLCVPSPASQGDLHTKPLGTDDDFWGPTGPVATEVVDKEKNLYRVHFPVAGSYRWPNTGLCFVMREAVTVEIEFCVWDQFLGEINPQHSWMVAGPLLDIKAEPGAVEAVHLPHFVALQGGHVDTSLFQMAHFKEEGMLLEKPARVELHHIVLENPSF
NACHT, LRR and PYD domains-containing protein 1, sequence (Q9C000 1213-1473 limits assumed): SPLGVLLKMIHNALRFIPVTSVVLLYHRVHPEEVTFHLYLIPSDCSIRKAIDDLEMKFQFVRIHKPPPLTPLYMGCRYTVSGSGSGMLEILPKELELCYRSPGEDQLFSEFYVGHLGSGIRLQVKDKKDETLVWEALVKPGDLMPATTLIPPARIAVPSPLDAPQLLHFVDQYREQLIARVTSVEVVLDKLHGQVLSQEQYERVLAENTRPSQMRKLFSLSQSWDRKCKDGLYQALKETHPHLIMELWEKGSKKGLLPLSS

For `COc1cccc(N=C2SC(C(=O)Nc3ccc(F)cc3)CC(=O)N2C)c1` (centres undefined), the IC50 [1] was > 100 µM (inactive) and the IC50 [2] was > 100 µM (inactive).

For `CS(=O)(=O)/C(=C/c1cccn1S(=O)(=O)c1ccccc1)CN`, the IC50 [3] was > 20 µM (not active) and the IC50 [4] was > 20 µM (inactive).

In the case of `O=C(CSc1nc2ccccc2o1)Nc1ccccc1N1CCCCCC1`, the IC50 [5] is reported as 2.06 µM (active) and the EC50 [6] is reported as 8.41 µM (active).

With `CCCOc1ccccc1NC(=O)/C=C/C(N)=O` the IC50 (Saccharomyces cerevisiae) was 5.33 µM (active) and the IC50 [7] was 8.5 µM (active).

In the case of `Cc1ccc(Cn2c(=N)c(C(=O)NC3CCCC3)cc3c(=O)n4ccccc4nc32)cc1`, the EC50 [8] is reported as 2.11 µM (active).

In the case of `CCC(C)Sc1cc(-c2nc3ccccn3c2NC2CCCCC2)ccc1OC` (centres undefined), the AC50 (Trypsin) is reported as 2.69 µM (active), the AC50 [9] is reported as 3.11 µM (active) and the AC50 [10] is reported as 21.1 µM (active). For the same molecule, the AC50 [11] was 18.2 µM (active), the AC50 [12] was 2.82 µM (active) and the EC50 (Streptokinase A) was 15 µM (active). The EC50 (Streptococcus) was 7.68 µM (active), the EC50 [13] was 2.28 µM (active) and the AC50 [14] was 15.7 µM (active). For the same molecule, the AC50 (CAAX prenyl protease 2) was 7.58 µM (active).
